From PubChem BioAssay (NCI)
Several values for one entry are separate records, joined by “and”; a condition that tells them apart may be missing. Equal values may be shown once.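 Test compounds were applied to cells in 96-well plates for 48 hours at 5 doses. At the GI50, growth is halved. The concentration for full growth arrest is given as TGI.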

test system: DU-145 prostate; assay: NCI-60 cell line screen, 48 h

Row | Structure (SMILES) | GI50 [µM] | TGI [µM]
1 | Cc1ccc(-c2cc(-c3ccco3)c(C#N)c(=S)n2C2OC(CO)C(O)C(O)C2O)cc1 (stereo unspecified) | 30.3 | > 100
2 | O=C(Cc1ccc(O)c(O)c1)NCc1c[nH]c2ccccc12 | – | > 100
3 | COc1nncc2[nH]c(-c3ccccc3)cc12 | – | > 100
4 | COc1ccc(-n2c(C)nc3ccc(NC(=S)Nc4ccccc4)cc3c2=O)cc1 | – | > 100
5 | O=C(NCc1ccccc1)c1n[nH][nH]c1=O | – | > 100
6 | O=S(=O)(c1ccccc1)c1cccc2c1NCCC2 | – | > 100

test system: HOP-92 NSCLC; assay: NCI-60 cell line screen, 48 h

Row | Structure (SMILES) | TGI | GI50 [µM]
7 | COc1cccc(Nc2nc(-c3cccs3)nc3cc(OC)c(OC)cc23)c1 | 51.9 µM | –
8 | O=C1c2cc3c(cc2-c2c1c1ccc(F)cc1c(=O)n2C[C@H](O)[C@@H](O)[C@H](O)CO)OCO3 | 0.69 µM | 0.18
9 | COc1ccc2[nH]cc(/C=C(/C)c3ccncc3)c2c1 | > 100 µM and 52.6 µM | 13.3
10 | Cc1cc(C)nc(NS(=O)(=O)c2ccc(NC(=O)c3ccc4nc5ccccc5c(Nc5ccc(S(N)(=O)=O)cc5)c4c3)cc2)n1 | > 100 µM | –
11 | COC(=O)[C@@H](O)[C@](O)(CCC(C)C)C(=O)O[C@@H]1C(OC)=C[C@]23CCCN2CCc2cc4c(cc2[C@H]13)OCO4 | 6.26 µM | –
12 | Cn1c2ccc3cc2c(=S)c2cc(ccc21)OCCOCCOCCOCCOCCOCCO3 | > 10 µM | –
13 | CC1(C)O[C@H]2OC(CO[Si](C)(C)C(C)(C)C)C(N=[N+]=[N-])[C@H]2O1 (stereo partly specified) | 75.9 µM | –
14 | COc1ccc2cc1Oc1ccc(cc1)C[C@H]1c3cc(c(OC)cc3CCN1C)Oc1c(O)c(OC)cc3c1[C@H](C2)N(C)CC3 | 26.9 µM | –
15 | Nc1ncnc2c1[nH]c(=O)n2-c1ccccc1 | > 100 µM | –
16 | COc1ccc(CN2C(=O)/C(=C\c3cc(OC)c(OC)c(OC)c3)c3ccccc32)cc1 | 7.3 µM | 1.96
17 | Cc1ccc(NC(=O)CC2Sc3ccccc3NC2=O)cc1C (stereo unspecified) | 95.8 µM | –
18 | CCC(=O)NC(Nc1cc(C)on1)(C(F)(F)F)C(F)(F)F | > 100 µM | –
19 | CCOP(=O)(OCC)C(F)(F)c1ccc(CC(NC(=O)OC(C)(C)C)C(=O)O)cc1 (stereo unspecified) | > 10 µM | –
20 | CCC(=O)NCC1CCCN2CCCCC12 (stereo unspecified) | > 100 µM | –
21 | NC(=O)C(=Cn1c(=S)[nH]c2ccc([N+](=O)[O-])cc21)C(N)=O | > 100 µM | –
22 | O=C(C1OC1c1ccc(Br)cc1O)C12CC3CC(CC(C3)C1)C2 (stereo unspecified) | 48.8 µM | –
23 | O=C1C=C[C@@H](COC2OC(CO)C(O)C(O)C2O)O1 (stereo partly specified) | 30.3 µM and 36 µM | 14.3
24 | Nc1nc(-c2ccccc2)nc2oc(-c3cccs3)nc12 | > 100 µM | –
25 | O=C(Cc1ccc(O)c(O)c1)NCc1c[nH]c2ccccc12 | > 100 µM | –
26 | COc1nncc2[nH]c(-c3ccccc3)cc12 | > 100 µM | –
27 | O=S(=O)(c1ccccc1)c1cccc2c1NCCC2 | > 100 µM | –

test system: NCI-H460 lung; assay: NCI-60 cell line screen, 48 h

Row | Structure (SMILES) | TGI | GI50 [µM]
28 | COc1cccc(Nc2nc(-c3cccs3)nc3cc(OC)c(OC)cc23)c1 | 79.4 µM | –
29 | COc1ccc2[nH]cc(/C=C(/C)c3ccncc3)c2c1 | 12.5 µM and 22.4 µM | –
30 | Cc1cc(Nc2ccc(S(=O)(=O)O)c3cc(S(=O)(=O)O)cc(S(=O)(=O)O)c23)c2ccccc2n1 | > 100 µM | –
31 | Cc1cc(C)nc(NS(=O)(=O)c2ccc(NC(=O)c3ccc4nc5ccccc5c(Nc5ccc(S(N)(=O)=O)cc5)c4c3)cc2)n1 | > 100 µM | –
32 | COC(=O)[C@@H](O)[C@](O)(CCC(C)C)C(=O)O[C@@H]1C(OC)=C[C@]23CCCN2CCc2cc4c(cc2[C@H]13)OCO4 | 1.7 µM | –
33 | Cn1c2ccc3cc2c(=S)c2cc(ccc21)OCCOCCOCCOCCOCCOCCO3 | > 10 µM | –
34 | CC1(C)O[C@H]2OC(CO[Si](C)(C)C(C)(C)C)C(N=[N+]=[N-])[C@H]2O1 (stereo partly specified) | 43.7 µM | –
35 | O=[N+]([O-])c1ccc(Cl)cc1N/N=C/c1ccnc2ccccc12 | > 100 µM | –
36 | COc1ccc2cc1Oc1ccc(cc1)C[C@H]1c3cc(c(OC)cc3CCN1C)Oc1c(O)c(OC)cc3c1[C@H](C2)N(C)CC3 | 45.2 µM | –
37 | Oc1ccc(Cc2cc(Cc3ccc(O)cc3)cc(Cc3ccc(O)cc3)c2)cc1 | > 50 µM | –
38 | Nc1ncnc2c1[nH]c(=O)n2-c1ccccc1 | > 100 µM | –
39 | CC1CN(C)c2ccccc2N=C1NN (stereo unspecified) | > 100 µM | –
40 | CC(=O)Oc1cccc2c1C(=O)CCCC2 | > 100 µM | –
41 | CCN(CC)C(=S)N/N=C/c1cc([N+](=O)[O-])ccc1O | 24.8 µM | –
42 | COc1ccc(CN2C(=O)/C(=C\c3cc(OC)c(OC)c(OC)c3)c3ccccc32)cc1 | 4.09 µM | 2.08
43 | Cc1ccc(NC(=O)CC2Sc3ccccc3NC2=O)cc1C (stereo unspecified) | > 100 µM | –

Row | Structure (SMILES) | TGI | GI50 [µM]
44 | N[C@@H](CCC(=O)NCP(=O)(O)O)C(=O)O | > 100 µM | –
45 | CCC(=O)NC(Nc1cc(C)on1)(C(F)(F)F)C(F)(F)F | > 100 µM | –
46 | CCOP(=O)(OCC)C(F)(F)c1ccc(CC(NC(=O)OC(C)(C)C)C(=O)O)cc1 (stereo unspecified) | > 10 µM | –
47 | CCC(=O)NCC1CCCN2CCCCC12 (stereo unspecified) | > 100 µM | –
48 | NC(=O)C(=Cn1c(=S)[nH]c2ccc([N+](=O)[O-])cc21)C(N)=O | > 100 µM | –
49 | O=C(C1OC1c1ccc(Br)cc1O)C12CC3CC(CC(C3)C1)C2 (stereo unspecified) | 85.2 µM | –
50 | Cc1ccc(N(Cc2ccccc2)Cc2ccccc2)cc1 | > 100 µM | –
51 | O=C1C=C[C@@H](COC2OC(CO)C(O)C(O)C2O)O1 (stereo partly specified) | 14.8 µM and 32.3 µM | 3.68
52 | c1ccc2c3[nH]c(c2c1)=Nc1ccc(cc1)-c1nc2cc(ccc2o1)N=c1[nH]c(c2ccccc12)=Nc1ccc2nc(oc2c1)-c1ccc(cc1)N=3 | > 100 µM | –
53 | Nc1nc(-c2ccccc2)nc2oc(-c3cccs3)nc12 | > 100 µM | –
54 | Cc1ccc(-c2cc(-c3ccco3)c(C#N)c(=S)n2C2OC(CO)C(O)C(O)C2O)cc1 (stereo unspecified) | > 100 µM | –
55 | O=C(Cc1ccc(O)c(O)c1)NCc1c[nH]c2ccccc12 | > 100 µM | –
56 | COc1nncc2[nH]c(-c3ccccc3)cc12 | > 100 µM | –
57 | COc1ccc(-n2c(C)nc3ccc(NC(=S)Nc4ccccc4)cc3c2=O)cc1 | > 100 µM | –
58 | O=C(NCc1ccccc1)c1n[nH][nH]c1=O | > 100 µM | –
59 | O=S(=O)(c1ccccc1)c1cccc2c1NCCC2 | > 100 µM | –

test system: NCI-H522 lung; assay: NCI-60 cell line screen, 48 h

Row | Structure (SMILES) | TGI | GI50 [µM]
60 | COc1cccc(Nc2nc(-c3cccs3)nc3cc(OC)c(OC)cc23)c1 | 43.1 µM | –
61 | O=C1c2cc3c(cc2-c2c1c1ccc(F)cc1c(=O)n2C[C@H](O)[C@@H](O)[C@H](O)CO)OCO3 | 0.137 µM | 0.0167
62 | COc1ccc2[nH]cc(/C=C(/C)c3ccncc3)c2c1 | 21.9 µM and 7.16 µM | 3.99
63 | Cc1cc(Nc2ccc(S(=O)(=O)O)c3cc(S(=O)(=O)O)cc(S(=O)(=O)O)c23)c2ccccc2n1 | > 100 µM | –
64 | Cc1cc(C)nc(NS(=O)(=O)c2ccc(NC(=O)c3ccc4nc5ccccc5c(Nc5ccc(S(N)(=O)=O)cc5)c4c3)cc2)n1 | > 100 µM | –
65 | CC1(C(=O)O)CCC2(C)CCC3(C)C(=CC(=O)C4C5(C)CCC(O)C(C)(C)C5CCC43C)C2C1 (stereo unspecified) | 50.1 µM | –
66 | COC(=O)[C@@H](O)[C@](O)(CCC(C)C)C(=O)O[C@@H]1C(OC)=C[C@]23CCCN2CCc2cc4c(cc2[C@H]13)OCO4 | 2.99 µM | –
67 | Cn1c2ccc3cc2c(=S)c2cc(ccc21)OCCOCCOCCOCCOCCOCCO3 | > 10 µM | –
